Results reported in US20240309014A1, “MACROCYCLIC COMPOUNDS AND USES THEREOF” (President and Fellows of Harvard College, priority 2017, published 2024).

How the values were obtained:
[1] = tested on: CD31-positive vessel in FaDu tumor; experiment: Effect on CD31-positive vessel in the FaDu subcutaneous model (Test Example 9); type: in vivo, nude mice; settings: five days after administration
Method: A human squamous cell carcinoma of the head and neck (SCCHN) cell line FaDu, which had been cultured in an RPMI-1640 medium containing 10% FBS, and penicillin and streptomycin, was adjusted to a concentration of 5×10^7 cells/mL with PBS to prepare a cell suspension. The cell suspension was inoculated in a volume of 100 μL into a subcutaneous part of a right flank of nude mice, 7 weeks of ages (CAnN.Cg-Foxnlnu/CrlCrlj, female, Charles River Laboratories Japan, Inc.). Ten days after cell inoculation, a test compound in saline with 100 μM of hydroxypropyl-β-cyclodextrin was intravenously administered at doses from ½ MTD to MTD. The experiment was conducted on groups each consisting of 3 mice. Five days after administration, tumor samples were collected and fixed with IHC Zinc Fixative (BD Pharmingen) at 4° C. for 24 hr. Paraffin-embedded tissues were sectioned ([…]), mounted on positively charged slides, and air-dried. Immunohistochemical staining of CD31 was conducted using Ventana autostainer model Discover XT (Roche Diagnostics) according to the manufacture's protocol. Sections were deparaffinized, conditioned and the antigens were retrieved with CC1 (Ventana Medical Systems). Slides were blocked with Blocker A and Blocker B (Endogenous biotin blocking kit, Roche Diagnostics). Rat anti-mouse IgG CD31 antibody (Dianova GmbH) was applied at 2 μg/mL. Sections were incubated with the antibody for 6 hr, followed by 32 minutes incubation with biotinylated anti-rat IgG antibody (Jackson ImmunoResearch Laboratories) at 2.2 μg/mL. The detection was performed with Streptavidin-HRP D for 16 min, followed by incubation with DAB D and DAB H2O2 D (DABMap kit, Ventana Medical Systems, Inc) for 8 min. Slides were counterstained with Hematoxylin II (Roche Diagnostics) for 16 min, followed by incubation with Bluing reagent for 4 min. Sections were dehydrated in graded ethanols, defatted in xylene replacement and covered with DPX (Merck KGaA).
Immunostained slides were scanned using Vectra 2 Automated Slide Imaging System (Perkin Elmer Inc.). The number of blood vessels in the whole tumor was quantified by counting the CD31-positive objects using in Form 2 software (PerkinElmer Inc.) Area of the tumor region was measured by assessing the hematoxylin-staining area using inform 2 software (PerkinElmer Inc.) The number of blood vessels was normalized by the area of the tumor region. An increase rate of the blood vessel number of the test compound-dosing group was calculated with the below formula, and shown in Table 9.

[2] = tested on: human breast cancer cell line MDA-MB231; experiment: MDA-MB231 growth inhibition assay; type: cell-based; settings: 3 days incubation, CellTiter-Glo
Method: In this assay, the growth inhibitory activity of test compounds in a human breast cancer cell line MDA-MB231 was measured. MDA-MB231 cells were maintained in Dulbecco's Modified Eagle's medium (Wako Pure Chemical Industries, Ltd., 044-29765) medium containing 10% fetal bovine serum (FBS: Nichirei, 12D168), and penicillin and streptomycin in a 5% CO2 incubator (37° C.). To each well of a 96 well plate (Becton, Dickinson and Company, 353219), 75 μL of MDA-MB231 cell suspension adjusted to a concentration of 4×10^4 cells/mL with the culture medium was added, and the cells were incubated overnight in a 5% CO2 incubator (37° C.). On the next day, 25 μL of Compound (1) or Halichondrin B in three-fold dilution series suspended in the culture medium was added to each well, and the resultant was incubated for 3 days in a 5% CO2 incubator (37° C.). Then, cell viability was determined by CellTiter-Glo® Luminescent Cell Viability Assay (Promega) with EnVision 2103 Multilabel Reader (Perkin-Elmer, Wellesley, MA). Value of the wells containing cells without adding the test compounds was defined as 100% and the value of the wells containing no cells was defined as 0%. The concentration of the test compound necessary for inhibiting the cell growth by 50% (i.e., an IC50 value) was calculated, and shown in Table 2.

[3] = tested on: α-SMA positive-CAFs in FaDu tumor; experiment: Effect on α-SMA positive-CAFs in the FaDu subcutaneous model (Test Example 10); type: in vivo, nude mice; settings: two days after administration
Method: A human squamous cell carcinoma of the head and neck (SCCHN) cell line FaDu, which had been cultured in an RPMI-1640 medium containing 10% FBS, and penicillin and streptomycin, was adjusted to a concentration of 5×10^7 cells/mL with PBS to prepare a cell suspension. The cell suspension was inoculated in a volume of 100 μL into a subcutaneous part of a right flank of nude mice, 5 to 6 weeks of ages (CAnN.Cg-Foxnlnu/CrlCrlj, female, Charles River Laboratories Japan, Inc.). Ten days after cell inoculation, a test compound in saline with 100 μM of hydroxypropyl-β-cyclodextrin was intravenously administered at ½ MTD and MTD. The experiment was conducted on groups each consisting of 3 mice. Two days after administration, tumor samples were collected and fixed with IHC Zinc Fixative (BD Pharmingen) at 4° C. for 24 hr. Paraffin-embedded tissues were sectioned ([…]), mounted on positively charged slides, and air-dried for 6 hr. Immunohistochemical staining of α-SMA was conducted using Ventana autostainer model Discover XT (Roche Diagnostics). Sections were deparaffinized, conditioned and the antigens were retrieved with proprietary buffers, EZPrep and CC1 (Ventana Medical Systems). Mouse anti-α-SMA monoclonal antibody conjugated with alkaline phosphatase (clone 1A4, Sigma) was applied at 5 μg/mL. Sections were incubated with the antibody for 6 hr. The detection was performed with RedMap kit (Ventana Medical Systems, Inc). Sections were dehydrated in graded ethanols, defatted in xylene replacement and covered with DPX (Merck KGaA). The serial tumor slices were deparaffinized and stained with Mayer's hematoxylin (Muto Pure Chemicals) for 1 min. Sections were dehydrated in graded ethanols, defatted in xylene replacement and covered with DPX (Merck KGaA).
Immunostained slides were scanned using Vectra 2 Automated Slide Imaging System (Perkin Elmer Inc.). The area of the α-SMA-positive region in the whole tumor was quantified by counting the α-SMA-positive objects using inForm 2 software (PerkinElmer Inc.). Area of the tumor region was measured by assessing the hematoxylin-staining area using inForm 2 software (PerkinElmer Inc.). The area of the α-SMA positive region was normalized by the area of the tumor region. A suppression rate of the α-SMA positive area of the test compound-dosing group was calculated with the below formula, and shown in Table 10.

[4] = MTD i.v. (Halichondrin B 0.05 mg/kg, Compound (1) 0.20 mg/kg)
[5] = ½ MTD i.v. (Halichondrin B 0.025 mg/kg, Compound (1) 0.10 mg/kg)

Row | SMILES | Increase rate of blood vessel number (%) [1, 4] [%] | Increase rate of blood vessel number (%) [1, 5] [%] | IC50 ([2]; Homo sapiens, MDA-MB-231, 72 h) [nM] | Suppression rate of α-SMA positive area (%) [3, 4] [%] | Suppression rate of α-SMA positive area (%) [3, 5] [%] | IC50 [2] [nM]
1 | C=C1C[C@@H]2CC[C@@]34C[C@H]5O[C@H]6[C@@H](O3)[C@H]3O[C@H](CC[C@@H]3O[C@H]6C5O4)CC(=O)O[C@@H]3[C@@H](C)[C@@H]4O[C@@H]5C[C@]6(C[C@@H]7O[C@]8(C[C@H](C)[C@@H]9O[C@H](CN)[C@H](O)C[C@@H]9O8)C[C@H](C)[C@@H]7O6)O[C@@H]5C[C@@H]4O[C@H]3C[C@H]3O[C@@H](CC[C@@H]1O2)C[C@@H](C)C3=C (stereo in doubt) [Compound (1)] | 154 | 69 | 0.109 | 28 | 21 | 
2 | C=C1C[C@@H]2CC[C@@]34C[C@H]5O[C@H]6[C@@H](O3)[C@H]3O[C@H](CC[C@@H]3O[C@H]6[C@H]5O4)CC(=O)O[C@@H]3[C@@H](C)[C@@H]4O[C@@H]5C[C@]6(C[C@@H]7O[C@]8(C[C@H](C)[C@@H]9O[C@H]([C@@H](O)C[C@@H](O)CO)C[C@@H]9O8)C[C@H](C)[C@@H]7O6)O[C@@H]5C[C@@H]4O[C@H]3C[C@H]3O[C@@H](CC[C@@H]1O2)C[C@@H](C)C3=C [Halichondrin B, reference compound] | 39 | 31 |  | 3 | 7 | 1
